Laboratory results: patent publication US9242933B2 (AbbVie Deutschland GmbH & Co. KG, priority 2007, dated 2016)

Target: T1, human mGlu2 receptor (Homo sapiens, UniProt Q14416)
T1 construct: expressed in transfected cells; host or cells: HEK293
Experiment: FLIPR intracellular Ca2+ assay, potentiation of glutamate response in HEK293 clone expressing mGlu2 receptor, rGLAST and Galpha16
Type: cell-based
Conditions: 1 μM glutamate added ten minutes after test compound, HEK293 cells with human mGlu2, rGLAST, Galpha16, read-out: EC50 values of potentiation effect to glutamate
In short: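 HEK293 cells stably expressing human mGlu2, rat GLAST and Gα16 were loaded with 2 µM Fluo-4 AM and intracellular Ca2+ read by FLIPR. Compound added alone (agonism), then with submaximal glutamate (e.g. 1 µM; potentiation). Background-subtracted peaks normalized to 100 µM glutamate response; EC50 from four-parameter fit.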

T1 sequence (Q14416 19-872): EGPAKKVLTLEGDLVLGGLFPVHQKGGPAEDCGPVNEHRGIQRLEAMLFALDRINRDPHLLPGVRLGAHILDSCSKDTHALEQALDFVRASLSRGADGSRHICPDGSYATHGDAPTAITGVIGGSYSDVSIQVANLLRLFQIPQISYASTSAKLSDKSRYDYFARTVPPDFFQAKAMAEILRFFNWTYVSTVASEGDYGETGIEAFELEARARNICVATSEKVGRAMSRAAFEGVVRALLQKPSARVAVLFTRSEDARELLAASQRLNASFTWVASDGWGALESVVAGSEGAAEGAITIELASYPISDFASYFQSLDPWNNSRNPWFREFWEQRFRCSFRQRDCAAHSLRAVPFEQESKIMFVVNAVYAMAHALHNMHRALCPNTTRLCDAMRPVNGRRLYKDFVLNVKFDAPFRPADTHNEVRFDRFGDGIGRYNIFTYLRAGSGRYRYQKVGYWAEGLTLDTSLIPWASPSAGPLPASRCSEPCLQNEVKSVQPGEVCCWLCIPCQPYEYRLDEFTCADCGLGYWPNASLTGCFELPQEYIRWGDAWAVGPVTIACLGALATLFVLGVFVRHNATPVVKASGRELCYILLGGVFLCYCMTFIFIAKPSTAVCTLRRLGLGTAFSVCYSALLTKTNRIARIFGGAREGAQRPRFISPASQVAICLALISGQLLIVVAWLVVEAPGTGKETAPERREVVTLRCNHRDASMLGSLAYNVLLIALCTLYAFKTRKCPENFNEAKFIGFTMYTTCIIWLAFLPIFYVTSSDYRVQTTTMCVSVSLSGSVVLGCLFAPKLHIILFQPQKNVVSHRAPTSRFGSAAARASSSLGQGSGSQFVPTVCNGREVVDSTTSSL

| SMILES | EC50 |
| --- | --- |
| CCCC(=O)c1ccc(OCc2c[nH]nc2-c2ccc(Cl)cc2)cc1 [Example 496, 1-{4-[3-(4-Chloro-phenyl)-1H-pyrazol-4-ylmethoxy]-phenyl}-butan-1-one] | < 1000 nM |
| CCCC(=O)c1ccc(NCc2cnccc2-c2ccccc2)cc1 [Example 525, 1-{4-[(4-Phenyl-pyridin-3-ylmethyl)-amino]-phenyl}-butan-1-one] | < 1000 nM |
| CCCC(=O)c1ccc(NCc2cccnc2OC(C)C)cc1 [Example 310, 1-{4-[(2-Isopropoxy-pyridin-3-ylmethyl)-amino]-phenyl}-butan-1-one] | 1000 to 10000 nM |
| CCCC(=O)c1ccc(NCc2c(C)nn(C)c2Oc2ccc(Cl)cc2)cc1 [Example 49, 1-(4-{[5-(4-Chlorophenoxy)-1,3-dimethyl-1H-pyrazol-4-ylmethyl]amino}phenyl)butan-1-one] | 1000 to 10000 nM |
| CC(=O)c1ccc(OCc2c[nH]nc2-c2ccc(C(F)(F)F)cc2)cc1C [Example 487, 1-{2-Methyl-4-[3-(4-trifluoromethyl-phenyl)-1H-pyrazol-4-ylmethoxy]-phenyl}-ethanone] | 1000 to 10000 nM |
| CCCC(=O)c1ccc(NCc2nn(C)c3ccccc23)cc1 [Example 219, 1-{4-[(1-Methyl-1H-indazol-3-ylmethyl)-amino]-phenyl}-butan-1-one] | 1000 to 10000 nM |
| CCCC(=O)c1ccc(NCc2c[nH]cc2-c2ccccc2)cc1 [Example 523, 1-{4-[(4-Phenyl-1H-pyrrol-3-ylmethyl)-amino]-phenyl}-butan-1-one] | 1000 to 10000 nM |
| CCCN1Cc2cc(NCc3c[nH]nc3-c3cccc(Cl)c3)ccc2C1=O [Example 577, 5-{[3-(3-Chloro-phenyl)-1H-pyrazol-4-ylmethyl]-amino}-2-propyl-2,3-dihydro-isoindol-1-one] | < 1000 nM |
| CCCC(=O)c1ccc(NCc2cnn(C(C)C)c2)cc1 [Example 75, 1-{4-[(1-Isopropyl-1H-pyrazol-4-ylmethyl)amino]phenyl}butan-1-one] | 1000 to 10000 nM |
| CCCC(=O)c1ccc(NCc2n[nH]c3ccccc23)cc1 [Example 215, 1-{4-[(1H-Indazol-3-ylmethyl)-amino]-phenyl}-butan-1-one] | 1000 to 10000 nM |
| CCCC(=O)c1ccc(NCc2ccc(Cl)nc2Cl)cc1 [Example 307, 1-{4-[(2,6-Dichloro-pyridin-3-ylmethyl)-amino]-phenyl}-butan-1-one] | 1000 to 10000 nM |
| CCCC(=O)c1ccc(NCc2c[nH]nc2CCC)cc1 [Example 476, 1-{4-[(3-Propyl-1H-pyrazol-4-ylmethyl)-amino]-phenyl}-butan-1-one] | 1000 to 10000 nM |
| CCCCN1Cc2cc(OCc3c[nH]nc3-c3cccc(Cl)c3)ccc2C1=O [Example 549, 2-Butyl-5-[3-(3-chloro-phenyl)-1H-pyrazol-4-ylmethoxy]-2,3-dihydro-isoindol-1-one] | < 1000 nM |
| FC(F)(F)c1ccc(-c2n[nH]cc2CNc2ccc(Cl)cn2)cc1 [Example 340, (5-Chloro-pyridin-2-yl)-[3-(4-trifluoromethyl-phenyl)-1H-pyrazol-4-ylmethyl]-amine] | 1000 to 10000 nM |
| COc1cc(NCc2c[nH]nc2C(C)(C)C)cc(OC)c1 [Example 116, (3-tert-Butyl-1H-pyrazol-4-ylmethyl)-(3,5-dimethoxyphenyl)-amine] | 1000 to 10000 nM |
| CCCC(=O)c1ccc(NCc2cnc(-c3ccccc3OC)s2)cc1 [Example 242, 1-(4-{[2-(2-Methoxy-phenyl)-thiazol-5-ylmethyl]-amino}-phenyl)-butan-1-one] | 1000 to 10000 nM |
| CCC(C)COc1cccc(N(Cc2c[nH]nc2-c2ccc(C(F)(F)F)cc2)S(=O)(=O)CC(F)(F)F)c1 (stereo not drawn) [Example 457, 2,2,2-Trifluoro-ethanesulfonic acid [3-(2-methyl-butoxy)-phenyl]-[3-(4-trifluoromethyl-phenyl)-1H-pyrazol-4-ylmethyl]-amide] | 1000 to 10000 nM |
| CC(=O)c1ccc(OCc2c[nH]nc2-c2ccc(C(F)(F)F)cc2)cc1F [Example 485, 1-{2-Fluoro-4-[3-(4-trifluoromethyl-phenyl)-1H-pyrazol-4-ylmethoxy]-phenyl}-ethanone] | 1000 to 10000 nM |
| O=C1c2ccc(OCc3c[nH]nc3-c3ccc(C(F)(F)F)cc3)cc2CN1CC(F)F [Example 566, 2-(2,2-Difluoro-ethyl)-5-[3-(4-trifluoromethyl-phenyl)-1H-pyrazol-4-ylmethoxy]-2,3-dihydro-isoindol-1-one] | < 1000 nM |
| CCCC(=O)c1ccc(NCc2ccc(N(C)C)nc2)cc1 [Example 387, 1-{4-[(6-Dimethylamino-pyridin-3-ylmethyl)-amino]-phenyl}-butan-1-one] | 1000 to 10000 nM |
| CCCC(=O)c1ccc(NCc2ccnn2C)cc1 [Example 216, 1-{4-[(2-Methyl-2H-pyrazol-3-ylmethyl)-amino]-phenyl}-butan-1-one] | 1000 to 10000 nM |

| SMILES | EC50 |
| --- | --- |
| O=C1c2ccc(OCc3c[nH]nc3-c3cccc(C(F)(F)F)c3)cc2CN1CC(F)(F)F [Example 569, 2-(2,2,2-Trifluoro-ethyl)-5-[3-(3-trifluoromethyl-phenyl)-1H-pyrazol-4-ylmethoxy]-2,3-dihydro-isoindol-1-one] | < 1000 nM |
| CCCC(=O)c1ccc(NCc2cccnc2-c2ccccc2)cc1 [Example 526, 1-{4-[(2-Phenyl-pyridin-3-ylmethyl)-amino]-phenyl}-butan-1-one] | 1000 to 10000 nM |
| CN(C)C(=O)c1ccc(NCc2c[nH]nc2-c2cccc(C(F)(F)F)c2)cc1 [Example 433, N,N-Dimethyl-4-{[3-(3-trifluoromethyl-phenyl)-1H-pyrazol-4-ylmethyl]-amino}-benzamide] | 1000 to 10000 nM |
| CC(C)(C)c1n[nH]cc1CN(c1cccc(OC2CCCC2)c1)S(=O)(=O)CC(F)(F)F [Example 458, 2,2,2-Trifluoro-ethanesulfonic acid (3-tert-butyl-1H-pyrazol-4-ylmethyl)-(3-cyclopentyloxy-phenyl)-amide] | 1000 to 10000 nM |
| O=C1c2ccc(OCc3c[nH]nc3-c3cccc(F)c3)cc2CN1CC(F)(F)F [Example 571, 5-[3-(3-Fluorophenyl)-1H-pyrazol-4-ylmethoxy]-2-(2,2,2-trifluoro-ethyl)-2,3-dihydro-isoindol-1-one] | < 1000 nM |
| CCCC(=O)c1ccc(NCc2c[nH]nc2-c2cccs2)cc1 [Example 40, 1-(4-{[3-(Thiophen-2-yl)-1H-pyrazol-4-ylmethyl]amino}phenyl)butan-1-one] | < 1000 nM |
| O=C(c1ccc(OCc2c[nH]nc2-c2cccc(C(F)(F)F)c2)cc1)C1CCCC1 [Example 442, Cyclopentyl-{4-[3-(3-trifluoromethyl-phenyl)-1H-pyrazol-4-ylmethoxy]-phenyl}-methanone] | < 1000 nM |
| O=C(c1ccccc1)c1ccc(NCc2c[nH]nc2-c2ccc(C(F)(F)F)cc2)cc1 [Example 504, Phenyl-(4-{[3-(4-trifluoromethyl-phenyl)-1H-pyrazol-4-ylmethyl]-amino}-phenyl)-methanone] | 1000 to 10000 nM |
| CC(=O)c1sccc1NCc1c[nH]nc1-c1ccc(C(F)(F)F)cc1 [Example 355, 1-(3-{[3-(4-Trifluoromethyl-phenyl)-1H-pyrazol-4-ylmethyl]-amino}-thiophen-2-yl)-ethanone] | 1000 to 10000 nM |
| CCCCN1Cc2cc(OCc3c[nH]nc3-c3ccc(Cl)c(Cl)c3)ccc2C1=O [Example 547, 2-Butyl-5-[3-(3,4-dichloro-phenyl)-1H-pyrazol-4-ylmethoxy]-2,3-dihydro-isoindol-1-one] | < 1000 nM |
| CCCc1c(NCc2c[nH]nc2-c2cccc(C(F)(F)F)c2)ccc(C(C)=O)c1O [Example 436, 1-(2-Hydroxy-3-propyl-4-{[3-(3-trifluoromethyl-phenyl)-1H-pyrazol-4-ylmethyl]-amino}-phenyl)-ethanone] | 1000 to 10000 nM |
| CC(C)COc1ccc(NCc2c[nH]nc2C(C)(C)C)cc1 [Example 286, (3-tert-Butyl-1H-pyrazol-4-ylmethyl)-(4-isobutoxy-phenyl)-amine] | 1000 to 10000 nM |
| CCCC(=O)c1ccc(NCc2cnc(-c3ccccc3)s2)cc1 [Example 246, 1-{4-[(2-Phenyl-thiazol-5-ylmethyl)-amino]-phenyl}-butan-1-one] | 1000 to 10000 nM |
| CCCC(=O)c1ccc(NCc2c[nH]nc2-c2ccc(O)cc2)cc1 [Example 76, 1-(4-{[3-(4-Hydroxyphenyl)-1H-pyrazol-4-ylmethyl]amino}phenyl)butan-1-one] | < 1000 nM |
| CCCC(=O)c1ccc(NCc2ccc(COC(C)=O)o2)cc1 [Example 23, Acetic acid 5-[(4-butyrylphenylamino)methyl]furan-2-ylmethyl ester] | 1000 to 10000 nM |
| CCCN1Cc2cc(OCc3c[nH]nc3-c3ccc(F)cc3)ccc2C1=O [Example 533, 5-[3-(4-Fluorophenyl)-1H-pyrazol-4-ylmethoxy]-2-propyl-2,3-dihydro-isoindol-1-one] | < 1000 nM |
| CCCC(=O)c1ccc(NCc2cnccc2-c2cccc(Br)c2)cc1 [Example 37, 1-(4-{[4-(3-Bromophenyl)pyridin-3-ylmethyl]amino}phenyl)butan-1-one] | 1000 to 10000 nM |
| CCCC(=O)c1ccc(NCc2c[nH]nc2-c2cccc(F)c2)cc1 [Example 511, 1-(4-{[3-(3-Fluorophenyl)-1H-pyrazol-4-ylmethyl]-amino}-phenyl)-butan-1-one] | < 1000 nM |
| COC(=O)c1ccc(NCc2c[nH]nc2-c2ccc(Cl)cc2)cc1 [Example 443, 4-{[3-(4-Chloro-phenyl)-1H-pyrazol-4-ylmethyl]-amino}-benzoic acid methyl ester] | 1000 to 10000 nM |
| CCCC(=O)c1ccc(NCc2n[nH]cc2-c2ccc(CC)cc2)cc1 [Example 516, 1-(4-{[4-(4-Ethyl-phenyl)-1H-pyrazol-3-ylmethyl]-amino}-phenyl)-butan-1-one] | < 1000 nM |
| O=C1c2ccc(OCc3c[nH]nc3-c3ccccc3)cc2CN1CCC(F)(F)F [Example 543, 5-(3-Phenyl-1H-pyrazol-4-ylmethoxy)-2-(3,3,3-trifluoro-propyl)-2,3-dihydro-isoindol-1-one] | < 1000 nM |
